Reference: patent US20250347680A1, “METHODS OF OPTIMIZING KINASE INHIBITORS” (Brandeis University, priority 2024, published 2025)

What was measured:
[1] = tested on: p38α phosphorylation in HL60 cells; assay: Western blot of p38α phosphorylation in HL60 cells after TNFα or LPS stimulation; format: cell-based, human; conditions: for level of dual-phosphorylated p38α in HL60 cells: 10 μM inhibitor 30 minutes after stimulation with TNFα (40 ng/mL) or LPS; for level of dual-phosphorylated p38α in HL60 cells / single-tyrosine phosphorylated p38α / phospho-tyrosine in HL60 cells (phospho-site specific antibody) / threonine phosphorylation of p38α in HL60 cells (phospho-site specific antibody): western blot; for single-tyrosine phosphorylated p38α / phospho-tyrosine in HL60 cells (phospho-site specific antibody) / threonine phosphorylation of p38α in HL60 cells (phospho-site specific antibody): 10 μM inhibitor after TNFα stimulation; for p38α threonine phosphorylation in cells harvested immediately after addition of inhibitor: cells pretreated with TNFα
Procedure: Cell culture, reagents and antibodies: HL60 cells were maintained in RPM I media supplemented with 2 mM L-glutamine and 10% fetal bovine serum (FBS) at 37° C. in a humidified atmosphere of 5% CO2. HL60-APPM1A were generated. The following antibodies were obtained from Cell Signaling Technologies (Danvers, MA); PPM1A (cat. #3549), p38 (cat. #9212) and 2p-p38 (cat. #4511). The following antibodies were obtained from A B Clonal (Woburn, MA); p38-phospho-Y182 (cat. #AP0057) and p38-phospho-T180 (cat. #AP0056). B-actin antibody (cat. #sc-47778) was obtained from Santa Cruz Biotechnology (Santa Cruz, CA). Recombinant human TNFα (cat. #300-01A) was obtained from Peprotech (Cranbury, NJ). Lipopolysaccharide (LPS) 500× solution (cat. #50-112-9325) was obtained from Invitrogen (Waltham, MA).
Cellular assays: HL60 cells were cultured in 6 well plates and grown until a density of 2 million cells/mL. […] Cells were spun down at 500 xg for 5 minutes, carefully washed with PBS once, and lysed with 50 μL RIPA buffer supplemented with 1:1000 phosphatase inhibitor and 1:500 benzonase. Lysates were centrifuged at 10,000 rpm for 15 minutes. Supernatant was harvested and lysate was either analyzed immediately or flash-frozen and stored at −80° C.
Western blot: Protein concentration of the lysate was determined using Bradford reagent normalized to a standard curve. 40-50 μg total protein per sample was separated on a 10% Tris-tricine polyacrylamide gel and then transferred to a polyvinylidene (PV DF) membrane using the Bio-Rad transfer system. Standard blotting protocol was followed. Primary antibodies (see antibody section) were incubated overnight at 4° C. followed by near-infrared (NIR) labeled secondary antibodies Goat anti-Rabbit IgG (H+L) Cross-Adsorbed Secondary Antibody, DyLight™ 800 (cat #. SA5-10036) or IgG (H+L) Cross-Adsorbed Goat anti-mouse, DyLight™ 680, Invitrogen™ (cat #. 35519) obtained from Invitrogen (Waltham, MA) for 1 hour at room temperature in 2.5% milk in TBST. Blots were washed and imaged on a LI-COR imaging instrument.

MKK6 = conditions: previous reports; cited from earlier work
p38α = molecular target: T1, p38α (Homo sapiens, UniProt Q16539); assay: WIP1 phosphatase assay: dephosphorylation of 32P-labelled dual-phosphorylated p38α bound to inhibitor; format: biochemical; conditions: p38α 0.25 μM, WIP1 2.5 μM, inhibitor 1.25 μM
T1 construct: 6-His (cleaved yes); made in house; host or cells: E. coli BL21 (DE3)
Procedure: (§1) Following initial incubation, excess cold ATP was added for a final concentration of 12 mM and was incubated overnight. Unincorporated nucleotide was removed by buffer exchange using a Zeba™ spin column equilibrated in 50 mM K·HEPES pH7.5, 100 mM NaCl. 6His-MKK6^EE was then removed by Ni-NTA resin equilibrated in 50 mM K·HEPES pH7.5, 100 mM NaCl, 20 mM imidazole. The flow-through fraction from the Ni-NTA resin containing p38-^32P was then exchanged into 50 mM K·HEPES pH7.5, 100 mM NaCl buffer using 3 subsequent Zeba spin columns to remove all unincorporated nucleotide and free phosphate. Labeled p38-^32P was aliquoted and frozen at −80° C. for future use.
WIP1 and PPM1A: All WIP1 phosphatase assays were performed at room temperature in 50 mM K HEPES pH7.5, 0.8 mM CHAPS, 0.05 mg/mL BSA, and 15 mM MnCl2. WIP1 concentration was 2.5 μM, PPM1A concentration was 0.5 μM and p38-^32P was 0.25 μM unless otherwise stated. […] Reactions were stopped with 0.5 MEDTA, pH8.0 and run on PEI-Cellulose TLC plates developed in 1 M LiCl2 and 0.8 M acetic acid and imaged on a Typhoon™ scanner. Phosphatase assays were performed more than three independent times as separate experiments. Data shown in figures is from a single representative experiment, and reported errors are the error from the fit unless indicated otherwise.

p38α (T180A) = molecular target: T2, p38α (T180A) (Homo sapiens, UniProt Q16539, T180A); assay: DUSP3 dephosphorylation of single tyrosine phosphorylated p38α (T180A); format: biochemical; conditions: DUSP3 15 μM, p38α T180A 0.25 μM, 5-fold excess inhibitor
T2 construct: 6-His (cleaved yes); made in house; host or cells: E. coli BL21 (DE3)
Procedure: as §1
DUSP3: All DUSP3 phosphatase assays were performed in 50 mM K HEPES pH7.5 and 100 mM NaCl. Reactions were stopped with SDS and run on PEI-Cellulose TLC plates run through water then developed in 1 M LiCl2 and 0.8 M acetic acid and imaged on a Typhoon scanner. Phosphatase assays were performed more than three independent times as separate experiments. Data shown in figures is from a single representative experiment, and reported errors are the error from the fit unless indicated otherwise.
+p38^T180A_32P: Reactions were run at room temperature with 15 μM DUSP3 and 0.25 μM p38^T180A_32.

MKK6 (Homo sapiens) = tested on: T3, MKK6 (Homo sapiens); assay: Kinase assay: phosphorylation of p38α by MKK6; conditions: biochemical assay; 50 μM inhibitor, 25 μM p38
T3 construct: made in house; host or cells: E. coli BL21 (DE3)
Procedure: Kinase assay: All kinase assays were performed at room temperature in 20 mM K HEPES PH7.5, 0.5 mMEDTA, 20 mM MgCl2 and 2 mM DTT. […] MKK6^EE was added to 25 μM p38, 25 μM cold ATP and 1 μCi of γ-^32P ATP. 50 μM p38 inhibitors were added to a final DMSO concentration of 5%. Reactions were stopped with SDS and run on PEI-Cellulose TLC plates run through water then developed in 1 M LiCl2 and 0.8 M acetic acid and imaged on a Typhoon™ scanner.

p38 = p38 (Homo sapiens, UniProt Q16539); conditions: initial biochemical kinase screening; cited from earlier work
[2] = single turnover, relative to DMSO control

T1 sequence (Q16539 whole entry): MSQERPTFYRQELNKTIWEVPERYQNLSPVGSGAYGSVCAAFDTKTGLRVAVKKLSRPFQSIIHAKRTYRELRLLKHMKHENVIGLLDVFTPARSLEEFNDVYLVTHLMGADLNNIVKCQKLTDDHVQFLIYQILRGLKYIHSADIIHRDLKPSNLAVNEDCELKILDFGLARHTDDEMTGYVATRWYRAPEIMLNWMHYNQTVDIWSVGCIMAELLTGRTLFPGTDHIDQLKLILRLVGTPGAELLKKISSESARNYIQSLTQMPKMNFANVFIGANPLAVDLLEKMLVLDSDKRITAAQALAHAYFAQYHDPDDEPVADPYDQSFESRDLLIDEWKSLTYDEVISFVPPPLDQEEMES
T2 sequence (Q16539 whole entry T180A): as the sequence (Q16539 whole entry) above, with T180A counted along it
Sequence of p38 (Q16539 whole entry): as the sequence (Q16539 whole entry) above
T3 sequence (Q16539 whole entry): as above

| Compound | level of dual-phosphorylated p38α in HL60 cells [1] | single-tyrosine phosphorylated p38α / phospho-tyrosine in HL60 cells (phospho-site specific antibody) [1] | threonine phosphorylation of p38α in HL60 cells (phospho-site specific antibody) [1] | p38α threonine phosphorylation in cells harvested immediately after addition of inhibitor [1] | other results |
| --- | --- | --- | --- | --- | --- |
| Cc1ccc(-n2nc(C(C)(C)C)cc2NC(=O)Nc2ccc(OCCN3CCOCC3)c3ccccc23)cc1 [BIRB 796] | disappeared | increase | disappearance | completely disappeared | MKK6 dual phosphorylation measured by ELISA (MKK6): block |
| CC(C)(C)Cn1c(N)nc2ccc(-c3[nH]c(C(C)(C)C)nc3-c3ccc(F)cc3)nc21 [LY2228820] | increased |  |  |  | decrease of the rate of threonine dephosphorylation of p38α by WIP1 (p38α; [2]): 5 fold |
| Oc1ccc(-c2nc(-c3ccncc3)c(-c3ccc(F)cc3)[nH]2)cc1 [SB202190] | increased |  | increased |  | decrease of the rate of threonine dephosphorylation of p38α by WIP1 (p38α; [2]): 5 fold; effect on rate of DUSP3 dephosphorylation of Y182 of p38α (T180A) (p38α (T180A)): no effect |
| NC(=O)c1ccc2[nH]ccc2c1 [SD-169] |  |  |  |  | effect on WIP1 threonine dephosphorylation of p38α (in words) (p38α): no change on phosphatase activity |
| CCc1nc(-c2cccc(C)c2)c(-c2ccnc(NC(=O)c3ccccc3)c2)s1 [TAK-715] | caused disappearance | did not accumulate |  |  |  |
| O=c1ncn2nc(Sc3ccc(F)cc3F)ccc2c1-c1c(Cl)cccc1Cl [VX-745] | caused disappearance | did not accumulate |  |  | effect on WIP1 threonine dephosphorylation of p38α (in words) (p38α): did not affect |
| Cc1c(F)cc(C(=O)NC2CC2)cc1-c1ccc(C(=O)NCC(C)(C)C)cn1 [losmapimod] | caused disappearance | did not accumulate |  |  |  |
| Cc1cn(-c2cc(NC(=O)c3ccc(C)c(Nc4nccc(-c5cccnc5)n4)c3)cc(C(F)(F)F)c2)cn1 [nilotinib] | disappeared | increase | disappearance | completely disappeared | increase of the rate of threonine dephosphorylation of p38α by WIP1 (p38α; [2]): four-fold; effect on rate of DUSP3 dephosphorylation of Y182 of p38α (T180A) (p38α (T180A)): no effect; threonine phosphorylation of p38α by MKK6 (MKK6 (Homo sapiens)): did not impact; binding of p38 compared to primary target ABL (p38): weak off-target binder |
| Cc1ccc(-n2nc(C(C)(C)C)cc2NC(=O)NCc2cc(F)ccc2Oc2ccc3c(cnn3CCO)c2)cc1 [pexmetinib] | disappeared | increase | disappearance | completely disappeared |  |
